# Experimental data published in patent US20090202661A1, “BEVERAGE MANUFACTURE, PROCESSING, PACKAGING AND DISPENSING USING ELECTROCHEMICALLY ACTIVATED WATER” (priority 2008, published 2009).
# Experiment: Residue neutralization: recovery and breakdown of pesticide and fungicide active ingredients after exposure to anolyte dilutions
# Assay type: physicochemical
# Details: 5 minutes, ambient temperature
# Method: The breakdown of pesticide and fungicide residues by an oxidant ECA anolyte solution was evaluated as follows.
# The oxidant anolyte solution was diluted using a 10 fold dilution series. As a control for this test, the potential for non-ECA based hydrolysis or chemical breakdown was assessed using two untreated control solutions, one being the tap water used as the diluent in the anolyte dilution series and the other being the non-activated brine solution that was used as the electrolysis feed solution prior to electro-activation.
# The experiment was performed to contrast the difference in degree of recovery of a variety of pesticide and fungicide active ingredients (AI's) after the tap water and the various diluted anolyte solutions were ‘spiked’ with the same AI's at fixed inclusion rates. In each case, a one ppm cocktail of the active ingredients was added to a 100 ml aliquot of the test or control solution sample. The test samples were agitated with a mechanical stirrer for 5 minutes at ambient temperature and then extracted with an organic solvent and analyzed by either gas or liquid chromatography.
# [1] = 0.25% Brine (nonactivated control)
SMILES,ng found [1],% breakdown (1% Anolyte solution) [%],ng found (1% Anolyte solution) [ng],% breakdown (10% anolyte solution) [%],ng found (10% anolyte solution) [ng],% breakdown (100% anolyte solution) [%],ng found (100% anolyte solution) [ng]
CCOP(=S)(OCC)Oc1nc(Cl)c(Cl)cc1Cl [Chlorpyrifos],1.014 ng,0.0,1.039,100,0.05,100,0.049
Cc1cc(C2CC2)nc(Nc2ccccc2)n1 [Cyprodinil],1.297 ng,0.0,1.356,96.3,0.068,100,0.026
CCCCNC(=O)n1c(NC(=O)OC)nc2ccccc21 [Benomyl],0.970 ng,8.0,0.890,45,0.520,100,0.000
CNC(=O)ON=C(C)SC [Methomyl],1.006 ng,36.6,0.634,100,0.000,100,0.000
COP(=S)(OC)SCn1nnc2ccccc2c1=O [Azinphos-methyl],2.341 ng,0.0,2.393,100,0.000,100,0.000
CNC(=O)O/N=C/C(C)(C)[S+](C)[O-] (stereo not shown) [Aldicarb sulfoxide],0.672 ng,15.8,0.514,100,0.000,100,0.000
CCOC(=O)CC(SP(=S)(OC)OC)C(=O)OCC (stereo not shown) [Malathion],"1,327 ng",0.0,1.368,100,0.066,100,0.067
CO/N=C(/C(=O)OC)c1ccccc1COc1ccccc1C [Kresoxim-methyl],1.300 ng,0.0,1.328,0.0,1.344,100,0.035
CNC(=O)O/N=C/C(C)(C)SC [Aldicarb],0.920 ng,49.5,0.425,100,0.000,100,0.000
CCCCc1c(C)nc(NCC)nc1OS(=O)(=O)N(C)C [Bupirimate],1.250 ng,0.0,1.233,52.0,0.730,100,0.074
